Source: patent US20090143318A1, “DEGRANULATION INHIBITOR” (Tropical Technology Center Ltd., priority 2006, published 2009)
Structures can show the parent of a compound that is named as a salt. Where two headings read alike, the source gives them in different places.

Test system: rat basophilic leukemia cells (RBL-2H3)
Experiment: Degranulation inhibitory activity: hexosaminidase release-inhibitory activity test
Assay type: cell-based
Settings: for IC50 value (inhibition of release of hexosaminidase) / IC50: IgE-sensitized RBL-2H3 cells, DNP-BSA antigen-induced degranulation; for Activity compared with the positive control ketotifen fumarate: statement in words, hexosaminidase release, RBL-2H3
Description: With regard to the measurement of degranulation inhibitory activity, a test for hexosaminidase release-inhibitory activity was carried out by referring to Non-Patent Document 1 and Non-Patent Document 2 (Kataoka M., Takagaki Y., Shoyakugaku Zasshi, 46(1), 25-29, 1992). Firstly, rat basophilic leukemia cells (RBL-2H3) were made into 5×10^5 cells/mL and seeded on a 96-well plate and anti-DNP-BSA mouse IgE antibody was added thereto so as to make its final concentration 0.29 μg/mL and incubated with 5% CO2 at 37° C. overnight in an incubator to sensitize the cells. Then the cells were washed with a phosphate-buffered physiological saline solution twice and 130 μL of a releasing mixture (comprising 116.9 mM of NaCl, 5.4 mM of KCl, 0.8 mM of MgSO4, 2.0 mM of CaCl2, 5.6 mM of glucose, 0.1% of bovine serum albumin and 25 mM of HEPES) was added thereto.
Then, Compounds (A) and (C) obtained in the invention were first dissolved in 25% ethanol, and then Compound (A) was diluted with 1% ethanol to achieve the final concentration in 7 serial dilutions in steps of from 1 μg/mL to 5 ng/mL; and Compound (C) was diluted with 1% ethanol to achieve the final concentration by 7 serial dilutions in steps of from 10 μg/mL to 50 ng/mL. Compound (B) was first dissolved in water, and then diluted with 1% ethanol to achieve the final concentration by 7 serial dilutions in steps of from 50 μg/mL to 50 ng/mL. Compound (D) was diluted with 4% ethanol-20 mM phosphate buffer to achieve the final concentration by 4 serial dilutions in steps of 2.6 μg/mL to 165 ng/mL. 10 μL portion samples of all concentrations of Compounds (A), (B), (C) and (D) were added to the cells, respectively, and allowed to stand at 37° C. under 5% CO2 in an incubator for 10 minutes. Then 10 μL of an antigen DNP-BSA (2 μg/mL) was added, the mixture was allowed to stand in an incubator for 1 hour to induce degranulation, and centrifuged to collect the supernatant. 15 μL of a 5 mM hexosaminidase substrate solution (p-nitrophenyl-β-D-glucosaminide) was added to 45 μL of the supernatant liquid, the mixture was made to react at 37° C. for 3 hours and 180 μL of a solution for stopping the reaction (0.1M NaHCO3/Na2CO3; pH 10.0) was added thereto. After completion of the reaction, absorbance at 415 nm was measured and the hexosaminidase release-inhibitory activity was calculated by the following formula. Meanwhile, a positive control (200 μM of ketotifen fumarate) and a negative control corresponding to the final solvent concentration for the test substance were prepared.
Hexosaminidase release-inhibitory Activity(%)=[1−(S−B/C−b)]×100
S: absorbance of the test substance upon addition of cells
B: absorbance upon addition of the test substance in the absence of the cells
C: absorbance of the negative control
b: absorbance in the absence of cells

[1] = molar concentration, read-out: IC50 value (inhibition of release of hexosaminidase), molar value in brackets
[2] = Rattus norvegicus, mass concentration, read-out: IC50 value (inhibition of release of hexosaminidase)
[3] = Rattus norvegicus, molar concentration, read-out: IC50 value (inhibition of release of hexosaminidase), molar value in brackets

Structure (SMILES) | IC50 value (inhibition of release of hexosaminidase) (mass concentration) [µg/mL] | IC50 [1] [µM] | IC50 [2] [µg/mL] | IC50 [3] [µM] | Activity compared with the positive control ketotifen fumarate
O=c1oc2c3c(cc4c(=O)oc5c(O)c(OC6O[C@H](CO)[C@@H](O)[C@H](O)[C@H]6O)cc1c5c24)OCO3 (stereo partly shown) [Compound (A), 3,4-dioxoloellagic acid 4′-glucoside] | 0.00663 | 0.014 | – | – | –
CN1CCC(=C2c3ccccc3CC(=O)c3sccc32)CC1 [Ketotifen fumarate, ketotifen fumarate, reference compound] | – | – | 71.8 | 169 | –
COc1c(O)cc2c(=O)oc3c(O)c(OC4O[C@H](CO)[C@@H](O)[C@H](O)[C@H]4O)cc4c(=O)oc1c2c34 (stereo partly shown) [Compound (B), 3-O-methylellagic acid 4′-glucoside] | 14.83 | 31 | – | – | higher activity
COc1cc2c(=O)oc3c(OC)c(O)cc4c(=O)oc(c1OC)c2c34 [Compound (C), 3,3′,4-tri-O-methylellagic acid] | – | – | 4.47 | 13 | higher activity
O=c1oc2c3c(cc4c(=O)oc5c(O)c(O)cc1c5c24)OCO3 [Compound (D), 3,4-dioxoloellagic acid] | – | – | 1.07 | 3 | higher activity
